Reference: patent publication US20060025398A1, “Topical antiviral therapeutic and prophylactic treatment of adenoviruses and their associated diseases” (priority 2003, published 2006)
“Also recorded” adds a separate entry of the source.

Tests used:
Adenovirus type 5 (Ad5) = assay: Adenovirus type 5 titers following direct exposure of the virus to CTC-96 prior to HeLa cell infection (plaque assay); type: cell-based; conditions: Ad5 incubated with CTC-96 at 37° C. for 60 minutes, diluted 500 fold, HeLa cells
Method: (§1) Anti-adenovirus activity of CTC-96 was evaluated by standard cell culture using HeLa cells, a human cervical carcinoma immortalized cell line (the usual host for laboratory grade adenovirus) and anti-viral plaque-reduction assays.
The data graphically depicted in FIG. 1 were obtained as follows: varying concentrations of the CTC-96 were mixed with concentrated Human Adenovirus, [Adenovirus type 5 (Ad5)] and incubated at 37° C. for 60 minutes. Aliquots were then diluted 500 fold into growth medium. Hela cells were exposed to 100 μl of the diluted material to initiate infection. These monolayers were incubated for 24 hours at 37% and 5% CO2 and then washed, scraped, sonicated, centrifuged and the supernatant serially diluted. These serial dilutions were plated onto indicator HeLa cell monolayers and adsorbed for 60 min, aspirated and a methycellulose overlay placed over the cells, which were then incubated for 3 days at 37%. Cultures were counterstained with 1% methylene blue, allowed to dry and the plaques counted. Results are expressed as mean±SD (where error bars are not visible they are contained within data point).

[1] = tested on: human Adenovirus type 5 (Ad5); assay: Virus titers after exposure of Ad5 infected HeLa cells to CTC-96 (plaque assay); type: cell-based; conditions: Ad5 adsorbed onto HeLa monolayers 60 min, then CTC-96 for 24 hr
Method: Monolayers were then incubated for 24 hr at 37° C. and 5% CO2. Monolayers were then washed, scraped, sonicated, centrifuged and the supernatant serially diluted. These serial dilutions were plated onto indicator HeLa cell monolayers and adsorbed for 60 min, aspirated and a methylcellulose overlay placed over the cells, which were then incubated for 3 days at 37%. Cultures were counterstained with 1% methylene blue, allowed to dry and the plaques counted. Results am expressed as mean & SD (where error bars are not visible they are contained within data point).

Human Adenovirus Type 5 [2] = assay: CTC-96 treatment of Adenovirus induced keratoconjunctivitis in rabbit eyes, clinical grading by slit lamp microscopy; type: in vivo; conditions: for progression of disease severity: 21 days, from day 8 post-inoculation
Method: (§2) Clinical results and plaque assay viral titers of three CTC-96 treatment/dosing regimens of rabbit eyes infected with Human adenovirus, Adenovirus type 5 (Ad5), were evaluated. On “Day 1” animals were infected with Human Adenovirus Type 5 by the installation of 10^6 pfu adenovirus according to our protocol of conjunctival and corneal scarification for the induction of Keratoconjunctivitis. […] Animals were then randomized and the following experimental groups were treated with CTC-96 or placebo in a double blind experiment: • (1) Placebo (diluent alone), 9×/day, for 21 days: (4 rabbits). • (2) CTC-96 50 μg/ml, 9×/day, for 21 days: (4 rabbits). • (3) CTC-96 50 μg/ml, 6×/day, for 21 days: (4 rabbits). • (4) C T W 25 μg/ml, 6×/day, for 21 bays: (4 rabbits).
Clinical disease progression and resolution were evaluated by slit lamp microscopy on days 1, 3, 7, 10, 13, 18, 21, 24, 28 and 31 after initial drug dosing. The intensity of the keratitis was quantified using a clinical grading system (5).
The data In FIG. 3 were obtained as follows: rabbits were infected with Human Adenovirus Type 5 by the installation 10^6 pfu adenovirus according to our protocol of conjunctival and corneal scarification for the production of Keratoconjunctivitis. On day 8 post-inoculation treatment with eye drops containing CTC-96 or placebo was initiated. Animals were examined for stromal keratitis and scored by the corneal disease scale of Wander et al. (5). The following are the Criteria For Determination Of Conjunctival Disease: […]

[3] = tested on: Adenovirus types 1, 2, 3, 4, 5, and 7; assay: CTC-96 efficacy against several adenovirus serotypes in HeLa cells in tissue culture (viral titers at each drug concentration); type: cell-based, Human Adenoviruses; conditions: drug overlaid after 1 hour adsorption, 24 hours, 500, 250, 100, 50, 10 μg/ml
Method: Since these human viruses cannot be grown in animal models, this provides an excellent indication of the effectiveness of CTC-96 against a broad spectrum of Adenovirus types. To determine CTC-96 efficacy against several types of serotypes of adevirus the following procedure was followed:
1. Hela cells were confluent at the time of inoculation.
2. Virus dilutions were prepared from the known titers of the stock viruses (4×10^5 pfu/ml; 4×10^4/0.1 ml) of Ad1 Kmetz, Ad2 Wolf, Ad3 Holyfield, Ad4 Harris, Ad7a Joseph, ATCC. This virus inoculation yielded a virus infection with an m.o.i. (multiplicity of infection) of approximately 1.0.
3. 100 µl of each Ad serotype were inoculated onto cultures containing Hela cells.
4. During the adsorption period, Doxovir concentrations of 500, 250, 100, 50, 10, and 0 μg/ml were prepared in culture medium according to the dilution protocol.
5. Virus was adsorbed at 37° C. in a 5% CO2 water-vapor atmosphere for 1 hour.
6. […]
13. Viral titers were determined at each drug concentration. […]
as §1

Human Adenovirus Type 5 [4] = assay: Adenovirus recovery from tear film of infected rabbit eyes, plaque assay on HeLa cell monolayers; type: in vivo
Method: as §2
The efficacy of CTC-96 treatment of rabbit eyes infected with Human adenovirus, Adenovirus type 5 (Ad5), was also evaluated by adenovirus recovery from tear film cultures adsorbed onto confluent HeLa cell monolayers. […] On day 8 post-inoculation treatment with eye drops containing CTC-96 or placebo was initiated. Adenovirus recovery from tear film was evaluated by plaque assay on confluent HeLa cell monolayers. Data are presented as Average±SD.

CC(/C=C(/C)[O-])=NCCN=C(C)/C=C(/C)[O-].Cc1ncc[nH]1.Cc1ncc[nH]1.[Br-].[Co+3] [CTC-96]
effect on virus growth when virus is exposed to the drug prior to cell infection (Adenovirus type 5 (Ad5)): inhibitory (prophylactic) effect on growth | effect on viral growth in Adenovirus infected cells subsequently exposed to the drug [1]: inhibition of viral growth | complete resolution of clinical disease (day after initial drug dosing) (Human Adenovirus Type 5 [2]; 50 μg/ml 6 times a day for 21 days): ≤ 21 days | complete resolution of clinical disease (day after initial drug dosing) (Human Adenovirus Type 5 [2]; 50 μg/ml 9 times a day for 21 days): ≤ 21 days | progression of disease severity (Human Adenovirus Type 5 [2]; topical eye drops 25 μg/ml, 6×/day): prevented progression of disease severity | progression of disease severity (Human Adenovirus Type 5 [2]; topical eye drops 50 μg/ml, 6×/day or 9×/day): prevented progression of disease severity | efficacy against Adenovirus types in culture [3]: effective against types 1, 2, 3, 4, 5, and 7; also recorded: efficacy against Adenovirus types 1, 2, 3, 4, 5, and 7 | no detectable virus in the eye (Human Adenovirus Type 5 [4]; 50 μg/ml 6 times a day): ≤ 13 days | no detectable virus in the eye (Human Adenovirus Type 5 [4]; 50 μg/ml 9 times a day): ≤ 13 days
